According to patent US9266830B2, “Pesticidal arylpyrrolidines” (Bayer Intellectual Property GmbH, priority 2007, dated 2016):

These compounds were tested on Amblyomma hebraeum (assay: Amblyomma hebraeum test (AMBYHE), nymph immersion). Conditions: 0.8 ppm, comparison with WO2008/128711.
Format: in vivo
Description: (§1) Solvent: dimethyl sulfoxide
To produce a suitable preparation of active compound, 10 mg of active compound are dissolved in 0.5 ml solvent, and the concentrate is diluted with water to the desired concentration. Nymphs of the tick Amblyomma hebraeum are placed in perforated plastic beakers and immersed in aqueous compound solution for one minute. Ticks are transferred to a filter paper in a Petri dish and incubated in a climate chamber for 42 days.
After 42 days mortality in % is determined 100% means that all the ticks have been killed; 0% means that none of the ticks have been killed.

Row | SMILES | Activity at 0.8 ppm
1 | CCC(=O)NCc1ccc(N2CCC(c3cc(Cl)cc(Cl)c3)(C(F)(F)F)C2)cc1Br (centres unmarked) [3-5 according to WO2008/128711, reference compound] | 10%

Same assay, conditions: 4 ppm, comparison with WO2008/128711

Row | SMILES | Activity at 4 ppm
2 | CCC(=O)NCc1ccc(N2CCC(c3cc(Cl)cc(Cl)c3)(C(F)(F)F)C2)cc1Br (centres unmarked) [3-5 according to WO2008/128711, reference compound] | 70%

The compounds below were run on Boophilus microplus (assay: Boophilus microplus test (injection)). Conditions: application rate 20 μg/animal, adult engorged females, after 7 days.
Format: in vivo
Description: as §1
To produce a suitable preparation of active compound, 10 mg of active compound are dissolved in 0.5 ml solvent, and the concentrate is diluted with solvent to the desired concentration. Five adult engorged female ticks (Boophilus microplus) are injected with compound solution into the abdomen. Ticks are transferred into replica plates and incubated in a climate chamber for a period of time. Egg deposition of fertile eggs is monitored. After 7 days mortality in % is determined 100% means that all eggs are infertile; 0% means that all eggs are fertile.

Row | SMILES | activity (100% means that all eggs are infertile)
3 | O=C(NCc1ccc(N2CCC(c3cc(Cl)c(Cl)c(Cl)c3)(C(F)(F)F)C2)cc1Cl)C1CC1 (centres unmarked) [1-339] | 100%
4 | O=C(CC(F)(F)F)NCc1cnc(N2CCC(c3cc(C(F)(F)F)cc(C(F)(F)F)c3)(C(F)(F)F)C2)cc1C(F)(F)F (centres unmarked) [1-386] | 100%
5 | CSCC(=O)NCc1ccc(N2CCC(c3cc(Cl)cc(Cl)c3)(C(F)(F)F)C2)cc1C(F)(F)F (centres unmarked) [1-186] | 100%
6 | O=C(NCc1ccc(N2CCC(c3cc(Cl)cc(Cl)c3)(C(F)(F)F)C2)cc1C(F)(F)F)C1CC1 (centres unmarked) [1-146] | 100%
7 | CCC(=O)NCc1ccc(N2CCC(c3cc(C(F)(F)F)cc(C(F)(F)F)c3)(C(F)(F)F)C2)cc1Br (centres unmarked) [1-312] | 100%
8 | O=C(CC(F)(F)F)NCc1cnc(N2CCC(c3cc(Cl)c(Cl)c(Cl)c3)(C(F)(F)F)C2)cc1C(F)(F)F (centres unmarked) [1-380] | 100%
9 | O=C(NCc1cnc(N2CCC(c3cc(Cl)c(Cl)c(Cl)c3)(C(F)(F)F)C2)nc1C(F)(F)F)C1CC1 (centres unmarked) [3-143] | 100%
10 | O=C(CC(F)(F)F)NCc1ccc(N2CCC(c3cc(C(F)(F)F)cc(C(F)(F)F)c3)(C(F)(F)F)C2)cc1C(F)(F)F (centres unmarked) [1-296] | 100%
11 | O=C(NCc1ccc(N2CCC(c3cc(Cl)cc(Cl)c3)(C(F)(F)F)C2)cc1Cl)C1CCC1 (centres unmarked) [1-8] | 100%
12 | O=C(NCc1ccc(N2CCC(c3cc(Cl)cc(Cl)c3)(C(F)(F)F)C2)cc1Cl)C1CC1(Cl)Cl (centres unmarked) [1-24] | 100%
13 | O=C(NCc1ccc(N2CCC(c3cc(C(F)(F)F)cc(C(F)(F)F)c3)(C(F)(F)F)C2)cc1Cl)C1CC1 (centres unmarked) [1-308] | 100%
14 | CCNC(=O)NCc1cnc(N2CCC(c3cc(Cl)c(Cl)c(Cl)c3)(C(F)(F)F)C2)cc1C(F)(F)F (centres unmarked) [1-381] | 100%
15 | FC(F)(F)C1(c2cc(Cl)cc(Cl)c2)CCN(c2ccc(CNC(=S)NC3CC3)c(Cl)c2)C1 (centres unmarked) [1-468] | 100%
16 | CN(Cc1ccc(N2CCC(c3cc(Cl)cc(Cl)c3)(C(F)(F)F)C2)cc1C(F)(F)F)C(=O)NC1CC1 (centres unmarked) [1-260] | 100%
17 | CC(C)C(=O)NCc1ccc(N2CCC(c3cc(Cl)cc(Cl)c3)(C(F)(F)F)C2)cc1Cl (centres unmarked) [1-3] | 100%
18 | O=C(NCC(F)(F)F)c1sc(N2CCC(c3cc(C(F)(F)F)cc(C(F)(F)F)c3)(C(F)(F)F)C2)nc1C(F)(F)F (centres unmarked) [4-34] | 100%
19 | CC(=O)NCc1ccc(N2CCC(c3cc(C(F)(F)F)cc(C(F)(F)F)c3)(C(F)(F)F)C2)cc1[N+](=O)[O-] (centres unmarked) [1-317] | 100%
20 | O=C(NCC(F)(F)F)c1sc(N2CCC(c3cc(Cl)cc(Cl)c3)(C(F)(F)F)C2)nc1C(F)(F)F (centres unmarked) [4-8] | 100%
21 | CC(NC(=O)NCc1ccc(N2CCC(c3cc(Cl)cc(Cl)c3)(C(F)(F)F)C2)cc1Cl)C(F)(F)F (centres unmarked) [1-442] | 100%

Row | SMILES | activity (100% means that all eggs are infertile)
22 | NCc1cnc(N2CCC(c3cc(C(F)(F)F)cc(C(F)(F)F)c3)(C(F)(F)F)C2)nc1C(F)(F)F (centres unmarked) [3-146] | 100%
23 | CN(Cc1ccc(N2CCC(c3cc(Cl)cc(Cl)c3)(C(F)(F)F)C2)cc1Cl)C(=O)CC(F)(F)F (centres unmarked) [1-75] | 100%
24 | CCNC(=O)NCc1cnc(N2CCC(c3cc(Cl)c(Cl)c(Cl)c3)(C(F)(F)F)C2)nc1C(F)(F)F (centres unmarked) [3-145] | 100%
25 | CS(=O)(=O)CC(=O)NCc1ccc(N2CCC(c3cc(Cl)c(Cl)c(Cl)c3)(C(F)(F)F)C2)cc1C(F)(F)F (centres unmarked) [1-730] | 100%
26 | CC[S+]([O-])CC(=O)NCc1ccc(N2CCC(c3cc(Cl)cc(Cl)c3)(C(F)(F)F)C2)cc1C(F)(F)F (centres unmarked) [1-500] | 100%
27 | O=C(NCc1sc(N2CCC(c3cc(Cl)c(Cl)c(Cl)c3)(C(F)(F)F)C2)nc1C(F)(F)F)C1CC1 (centres unmarked) [5-143] | 100%
28 | CCCNC(=O)NCc1ccc(N2CCC(c3cc(C(F)(F)F)cc(C(F)(F)F)c3)(C(F)(F)F)C2)cc1C(F)(F)F (centres unmarked) [1-303] | 100%
29 | C=CCSCC(=O)NCc1ccc(N2CCC(c3cc(C(F)(F)F)cc(C(F)(F)F)c3)(C(F)(F)F)C2)cc1C(F)(F)F (centres unmarked) [1-969] | 100%
30 | C[S+]([O-])CC(=O)NCc1ccc(N2CCC(c3cc(Cl)cc(Cl)c3)(C(F)(F)F)C2)cc1C(F)(F)F (centres unmarked) [1-494] | 100%
31 | C=CC[S+]([O-])CC(=O)NCc1ccc(N2CCC(c3cc(C(F)(F)F)cc(C(F)(F)F)c3)(C(F)(F)F)C2)cc1C(F)(F)F (centres unmarked) [1-970] | 100%
32 | CC=CC(=O)NCc1ccc(N2CCC(c3cc(Cl)cc(Cl)c3)(C(F)(F)F)C2)cc1Cl (centres unmarked) [1-30] | 100%
33 | C[S+]([O-])CC(=O)NCc1ccc(N2CCC(c3cc(Cl)c(Cl)c(Cl)c3)(C(F)(F)F)C2)cc1C(F)(F)F (centres unmarked) [1-729] | 100%
34 | O=C(NCc1ccc(N2CCC(c3cc(Cl)cc(Cl)c3)(C(F)(F)F)C2)cc1C(F)(F)F)NC1CC1 (centres unmarked) [1-224] | 100%
35 | CCC(=O)NC1CCc2cc(N3CCC(c4cc(Cl)cc(Cl)c4)(C(F)(F)F)C3)ccc21 (centres unmarked) [6-4] | 100%
36 | CC(=O)OCC(=O)NCc1ccc(N2CCC(c3cc(Cl)cc(Cl)c3)(C(F)(F)F)C2)cc1C(F)(F)F (centres unmarked) [1-188] | 100%
37 | O=C(NCc1ccc(N2CCC(c3cc(Cl)cc(Cl)c3)(C(F)(F)F)C2)cc1Cl)NC1CC1 (centres unmarked) [1-81] | 100%
38 | O=C(NCc1ccccn1)c1cnc(N2CCC(c3cc(C(F)(F)F)cc(C(F)(F)F)c3)(C(F)(F)F)C2)nc1C(F)(F)F (centres unmarked) [2-35] | 100%
39 | O=C(NCc1ccc(N2CCC(c3cc(Cl)cc(Cl)c3)(C(F)(F)F)C2)cc1C(F)(F)F)NCC1CC1 (centres unmarked) [1-232] | 100%
40 | O=C(NCc1ccc(N2CCC(c3cc(C(F)(F)F)cc(C(F)(F)F)c3)(C(F)(F)F)C2)cc1[N+](=O)[O-])C1CC1 (centres unmarked) [1-319] | 100%

Row | SMILES | activity (100% means that all eggs are infertile)
41 | N#Cc1ccc(N2CCC(c3cc(Cl)c(Cl)c(Cl)c3)(C(F)(F)F)C2)cc1C(F)(F)F (centres unmarked) [7-12] | 100%
42 | CSCC(=O)NCc1ccc(N2CCC(c3cc(Cl)cc(Cl)c3)(C(F)(F)F)C2)cc1Cl (centres unmarked) [1-42] | 100%
43 | CCNC(=O)N(C)Cc1ccc(N2CCC(c3cc(Cl)cc(Cl)c3)(C(F)(F)F)C2)cc1Cl (centres unmarked) [1-113] | 100%
44 | CS(=O)(=O)CC(=O)NCc1ccc(N2CCC(c3cc(C(F)(F)F)cc(C(F)(F)F)c3)(C(F)(F)F)C2)cc1C(F)(F)F (centres unmarked) [1-968] | 100%
45 | CC(C)C(=O)NCc1ccc(N2CCC(c3cc(Cl)cc(Cl)c3)(C(F)(F)F)C2)cc1C(F)(F)F (centres unmarked) [1-145] | 100%
46 | CCC(=O)NCc1ccc(N2CCC(c3cc(Cl)c(Cl)c(Cl)c3)(C(F)(F)F)C2)cc1Br (centres unmarked) [1-345] | 100%
47 | O=C(NCc1cnc(N2CCC(c3cc(C(F)(F)F)cc(C(F)(F)F)c3)(C(F)(F)F)C2)nc1C(F)(F)F)C1CC1 (centres unmarked) [3-149] | 100%
48 | C[S+]([O-])CC(=O)NCc1ccc(N2CCC(c3cc(C(F)(F)F)cc(C(F)(F)F)c3)(C(F)(F)F)C2)cc1C(F)(F)F (centres unmarked) [1-967] | 100%
49 | O=C(CC1CC1)NCc1ccc(N2CCC(c3cc(Cl)cc(Cl)c3)(C(F)(F)F)C2)cc1Cl (centres unmarked) [1-12] | 100%
50 | O=C(NCc1ccccn1)c1sc(N2CCC(c3cc(C(F)(F)F)cc(C(F)(F)F)c3)(C(F)(F)F)C2)nc1C(F)(F)F (centres unmarked) [4-35] | 100%
51 | CC(=O)NCc1cnc(N2CCC(c3cc(Cl)c(Cl)c(Cl)c3)(C(F)(F)F)C2)nc1C(F)(F)F (centres unmarked) [3-141] | 100%
52 | C=CC[S+]([O-])CC(=O)NCc1ccc(N2CCC(c3cc(Cl)cc(Cl)c3)(C(F)(F)F)C2)cc1C(F)(F)F (centres unmarked) [1-504] | 100%
53 | CC(Br)C(=O)NCc1ccc(N2CCC(c3cc(Cl)cc(Cl)c3)(C(F)(F)F)C2)cc1Cl (centres unmarked) [1-458] | 100%
54 | NCc1ccc(N2CCC(c3cc(Cl)cc(Cl)c3)(C(F)(F)F)C2)cc1C(F)(F)F (centres unmarked) [1-141] | 100%
55 | CSCC(=O)NCc1ccc(N2CCC(c3cc(C(F)(F)F)cc(C(F)(F)F)c3)(C(F)(F)F)C2)cc1C(F)(F)F (centres unmarked) [1-966] | 100%
56 | CCOC(=O)NCc1ccc(N2CCC(c3cc(C(F)(F)F)cc(C(F)(F)F)c3)(C(F)(F)F)C2)cc1C(F)(F)F (centres unmarked) [1-299] | 100%
57 | C=CC[S+]([O-])CC(=O)NCc1ccc(N2CCC(c3cc(Cl)c(Cl)c(Cl)c3)(C(F)(F)F)C2)cc1C(F)(F)F (centres unmarked) [1-733] | 100%
58 | C=CCS(=O)(=O)CC(=O)NCc1ccc(N2CCC(c3cc(C(F)(F)F)cc(C(F)(F)F)c3)(C(F)(F)F)C2)cc1C(F)(F)F (centres unmarked) [1-971] | 100%
59 | O=C(NCc1ccc(N2CCC(c3cc(Cl)cc(Cl)c3)(C(F)(F)F)C2)cc1Cl)C1CC1(F)F (centres unmarked) [1-25] | 100%
